Source: patent publication US12714735B2, “Herbal composition for cancer” (priority 2024, dated 2026)
In brackets after ≈: the same amount, converted by molar mass. Several values for one entry are separate records, joined by “and”; a condition that tells them apart may be missing. Equal values may be shown once.

Columns and labels:
[1] = Free radical scavenging activity (antioxidant assay); assay type: biochemical
Excerpt: Evaluation of in-vitro cytotoxic potential of herbal products in human Lung cancer cell line (A549) by antioxidant assay: […] These substances may have potential as cytotoxic agents for further investigation. In an embodiment, free radical scavenging activity as per IC50 value: […]

[2] = MTT cytotoxicity assay; assay type: cell-based; conditions: human
Procedure: (§1) Human Lung carcinoma epithelial cell line, A549 cell line was obtained from the National Centre for Cell Sciences (NCCS, Pune). The cell line was cultured in DMEM (Himedia), supplemented with 10% fetal bovine serum (Sigma-Aldrich), 25 U/ml penicillin, and […] streptomycin (Himedia) at 37° ° C. in a water-saturated atmosphere of 95% air and 5% CO2. The experiments were repeated three times and average OD (absorbance values) were taken and plotted
8 test compounds (Wheatgrass, Ginger, Garlic, Tulsi, Green tea, Ashwagandha, 95% extract of Piperine and Turmeric) were obtained from the formulation department of Dabur Research Foundation, Sahibabad, Ghaziabad, U.P. 201010. 100 mg of the test compounds was weighed and dissolved in DMSO. After that, it was vortexed thoroughly followed by centrifugation. The clear supernatant was then used for further experimentation.
as §1, with “Cell culture Human” for “Human”, “37°” for “37° °”, “CO2.” for “CO2. The experiments were repeated three times and average OD (absorbance values) were taken and plotted”
The effect of DMSO extracts of 8 test compounds (Wheatgrass, Ginger, Garlic, Tulsi, Green tea, Ashwagandha, 95% extract of Piperine and Turmeric) on A549 human lung carcinoma epithelial cell line was observed by MTT (3-(4,5-dimethylthiazol-2-yl)-2,5-diphenyl tetrazolium bromide) assay. MTT reagent was purchased from Sigma (Darmstadt, Germany). Cells were counted on a hemocytometer and 10,000 cells/well were plated in 96 well plate in 180 μl of complete media (containing 10% of FBS).
Cells were treated with different concentrations (0.01, 0.1, 1, 10, 50, 100 μg/ml) of Wheatgrass, Ginger, Garlic, Tulsi, Green tea & Ashwagandha extracts and at concentrations (0.001, 0.01, 0.1, 1, 10 and 50 μg/ml) of 95% extract of Piperine and Turmeric for 72 hr. After the stipulated time, MTT solution (5 mg/ml) was added to each well and incubated for 3 hr. The purple-colored precipitate of formazan was dissolved in 150 μl of DMSO (Sigma-Aldrich) by proper mixing. The color absorbance of each well was recorded at 570 nm in a Bioteck microplate reader with a reference serving as blank. Then, IC50 values of DMSO extracts of 8 test compounds were calculated.
Statistical analysis MTT Data were analyzed by using Microsoft office Excel Software.

IC 50 value (free radical scavenging) [1] [µg/mL]	SMILES	% Inhibition ([1]; 1 μg/ml) [%]	% Inhibition ([1]; 10 μg/ml)	% Inhibition ([1]; 20 μg/ml)	% Inhibition ([1]; 30 μg/ml)	% Inhibition ([1]; 40 μg/ml)	% Inhibition ([1]; 50 μg/ml)	% Inhibition ([1]; 100 μg/ml)	IC50 at 72 h [2] [µM]	cytotoxicity at 72 h, 0.1 µM [2] [%]	cytotoxicity at 72 h, 1 µM [2] [%]	cytotoxicity at 72 h, 10 µM [2] [%]	cytotoxicity at 72 h, 25 µM [2] [%]	cytotoxicity at 72 h, 50 µM [2] [%]
37.54 (≈ 213 µM)	O=C1O[C@H]([C@@H](O)CO)C(O)=C1O [Ascorbic Acid]	2.3	13% and 13.2%	24% and 24.4%	38% and 37.6%	51% and 50.8%	63% and 62.6%	90% and 90.4%						
	COc1cccc2c1C(=O)c1c(O)c3c(c(O)c1C2=O)C[C@@](O)(C(=O)CO)C[C@@H]3O[C@H]1C[C@H](N)[C@H](O)[C@H](C)O1 [Doxorubicin]								9.39	11.7	19.3	51	66.2	69.2
